# In paper PMC4533973, “Synthesis and Evaluation of Chloramphenicol Homodimers: Molecular Target, Antimicrobial Activity, and Toxicity against Human Cells” (PLoS ONE, 2015):
# Where two headings read alike, the source gives them in different places.
# Columns and labels:
# E. coli (ΔtolC) = assay: Antibacterial activity (growth inhibition, EC50); assay type: cell-based, Escherichia coli
# Text: (§1) A.S. Mankin (University of Illinois). E. coli ΔtolC strain BL21 DE3 with impaired AcrAB-TolC, a proton-dependent MDR efflux pump causing multidrug resistance, was offered by Dr D.N. Wilson (University of Munich) and included in our study to test if this mechanism of resistance affects the efficacy of CAM dimers. […] I. Spiliopoulou (National Reference Laboratory for Staphylococci, School of Medicine, University of Patras, Greece). Finally, E. coli strain Rosetta(DE3)pLysS, containing a chloramphenicol resistant gene in the pLysS plasmid, was purchased from Novagen and was also included in our study. Briefly, S. aureus or E. coli cells (200 μl of a 0.700 OD560 preculture) containing wild-type or mutant ribosomes were added in 3.8 ml of LB (Luria-Bertani) medium and grown at 37°C in the presence or absence of CAM or CAM dimers until the optical density of the control culture (grown in the absence of drug) reached the value 0.700 at 560 nm. For E. faecium and P. aeruginosa cultures, TSB (Tryptic Soy Broth) medium was used, instead of LB medium, in order to achieve exponential doubling times between 25 and 35 minutes. From dose-response curves, the half-maximal effective concentration (EC50) for each compound and strain was estimated. EC50 represents the molar concentration of a compound that produces 50% of the maximal possible effect. The EC50 values were mathematically determined by non linear regression fitting of the observed culture optical-density values, expressed as the percentage of 0.700 (y), into Hill Equation, y=min+max−min/1+(x/EC50)^−n where min and max are the lowest and highest observed values of the culture optical density, respectively, x the concentration of the tested compound, and n the Hill coefficient that represents the largest absolute value of the curve slope. EC50 is equal to the x- value of the sigmoid’s midpoint. Fitting was performed using the Four Parameter Logistic Curve of the SigmaPlot Program Version 11.0 (Systat Software, Inc) for Exact Graphs and Data Analysis.
# E. coli (WT) = assay: Antibacterial activity (growth inhibition, EC50); assay type: cell-based, Escherichia coli
# Text: as §1
# [1] = system: E. coli Rosetta(DE3)pLysS; assay: Antibacterial activity (growth inhibition, EC50); assay type: cell-based, Escherichia coli; settings: Escherichia coli
# Text: as §1
# E. coli (A2058G) = assay: Antibacterial activity (growth inhibition, EC50); assay type: cell-based, Escherichia coli; settings: Escherichia coli
# Text: as §1
# E. coli (A2503C) = assay: Antibacterial activity (growth inhibition, EC50); assay type: cell-based, Escherichia coli; settings: Escherichia coli
# Text: as §1
# Jurkat cells = assay: Toxicity assays in Jurkat cells (cell counting, necrosis and apoptosis by flow cytometry); assay type: cell-based, Human; settings: 60 μM; flow cytometry
# Procedure: Fig 8 Toxicity assays in Jurkat cells. Jurkat cells were adjusted to 1×10^9 cells/L in RPMI-1640 medium containing 1% Penicillin/Streptomycin and 10% fetal bovine serum. The cells were grown in triplicate in the presence or absence of compound 5 at the indicated concentrations for 4 days at 37°C, under a humidified 5% CO2 atmosphere. CAM was used as a reference compound. For cell necrosis and apoptosis assays, samples (10^6 cells) were collected daily and determined by flow cytometry. Apoptotic and necrotic cells were expressed as a percentage of total cells.
# Human leukemic cell lines, HS-Sultan (Burkitt’s lymphoma), Jurkat (T-cell acute lymphoblastic leukemia), and U937 (histiocytic lymphoma), were adjusted to 1×10^9 cells/l in RPMI-1640 medium supplemented with 10% fetal bovine serum and 1% penicillin/streptomycin. The cells were grown in triplicate in the absence (control cultures) or presence of CAM or CAM dimers for 4 days at 37°C, under a humidified 5% CO2 atmosphere. The medium was changed daily; CAM or CAM dimer addition was repeated after medium change. Aliquots were collected daily and counted in a CELL-DYN 3700 Hematology Analyzer. For cell necrosis and apoptosis assays, samples (10^6 cells) were collected and determined using the Annexin V-PE Apoptosis Detection Kit I (BD Pharmingen) for flow cytometry, according to the manufacturers’ instructions. Flow cytometry data were analyzed using the FlowJo flow cytometry analysis software. Necrotic and apoptotic cells were expressed as a percentage of total cells.
# ribosome = molecular target: ribosome; set-up: method as in PMID 14654696; settings: read-out: K i, cryptic low-affinity site (entrance to the exit tunnel); cited from earlier work
# MRSA (GRE2272) = assay: Antibacterial activity (growth inhibition, EC50); assay type: cell-based; settings: Staphylococcus aureus
# Text: as §1
# MRSA (GRE2691) = assay: Antibacterial activity (growth inhibition, EC50); assay type: cell-based; settings: Staphylococcus aureus
# Text: as §1
# E. faecium (GRE5152) = assay: Antibacterial activity (growth inhibition, EC50); assay type: cell-based; settings: Enterococcus faecium
# Text: as §1
# S. aureus (WT) = assay: Antibacterial activity (growth inhibition, EC50); assay type: cell-based; settings: Staphylococcus aureus
# Text: as §1
# [2] = system: post-translocation ribosomal complex (complex C) derived from E. coli; set-up: method as in Xaplanteri et al., [6]; settings: ref Xaplanteri et al., [6], cited from earlier work
# [3] = system: Escherichia coli ribosomes; set-up: method as in earlier work; settings: equilibrium dialysis, cited from earlier work
# P. aeruginosa (GRE5288) = assay: Antibacterial activity (growth inhibition, EC50); assay type: cell-based, Pseudomonas aeruginosa
# Text: as §1
structure (smiles),measurement,setting,value
"O=C(N[C@H](CO)[C@H](O)c1ccc([N+](=O)[O-])cc1)C(Cl)Cl [CAM, chloramphenicol]",fold more sensitive than wild-type E. coli,E. coli (ΔtolC); E. coli BL21 DE3 (ΔtolC) versus wild-type E. coli,approximately 2 fold
same,EC50,"E. coli (ΔtolC); Escherichia coli, BL21-DE3",2.2 ± 0.1 µM
same,EC50,"E. coli (WT); Escherichia coli, LB medium, 37°C, OD560",4.4 ± 0.2 µM
same,EC50(cell growth)/IC50(puro),"E. coli (WT); wild-type E. coli, IC50(puro) calculated from Ki* at 2 mM puromycin",0.84 ± 0.07
same,EC50,[1],115 ± 16.3 µM
same,EC50,E. coli (A2058G),15.9 ± 1.1 µM
same,EC50,E. coli (A2503C),24.9 ± 2.5 µM
same,"apoptosis, expressed as a percentage of total cells",Jurkat cells,did not induce any necrosis/apoptosis effect
same,necrosis,Jurkat cells,did not induce any necrosis/apoptosis effect
same,Ki,ribosome,~300 µM
same,EC50,MRSA (GRE2272),8.4 ± 0.7 µM
same,EC50,MRSA (GRE2691),12.8 ± 1.5 µM
same,EC50,E. faecium (GRE5152),3.5 ± 0.3 µM
same,EC50,S. aureus (WT),2.9 ± 0.1 µM
same,Ki,[2]; encounter complex CI,3.1 ± 0.3 µM
same,Ki,[2]; overall inhibition constant,0.88 ± 0.07 µM
same,k off,[2],0.0165 ± 0.00067 s⁻¹
same,Kd,"[3]; read-out: K D, high affinity site",2 µM
same,Kd,"[3]; read-out: K D, low affinity site",200 µM
same,fold higher EC50 value than wild-type E. coli,P. aeruginosa (GRE5288); P. aeruginosa versus wild-type E. coli,6 fold
same,EC50,P. aeruginosa (GRE5288); Pseudomonas aeruginosa,25.6 ± 2.2 µM
